This note sets out measurements from publication PMC4801207, “Characterisation of Signalling by the Endogenous GPER1 (GPR30) Receptor in an Embryonic Mouse Hippocampal Cell Line (mHippoE-18)” (PLoS ONE, 2016).

The assay deals with T1, GPER1 (GPR30) (Mus musculus, UniProt Q8BMP4).
T1 construct: full-length endogenous receptor, native in mHippoE-18 immortalized embryonic mouse hippocampal cell line (CELLutions Biosystems); cells also express moderate ERalpha and ERbeta
T1 sequence (Q8BMP4 1-375): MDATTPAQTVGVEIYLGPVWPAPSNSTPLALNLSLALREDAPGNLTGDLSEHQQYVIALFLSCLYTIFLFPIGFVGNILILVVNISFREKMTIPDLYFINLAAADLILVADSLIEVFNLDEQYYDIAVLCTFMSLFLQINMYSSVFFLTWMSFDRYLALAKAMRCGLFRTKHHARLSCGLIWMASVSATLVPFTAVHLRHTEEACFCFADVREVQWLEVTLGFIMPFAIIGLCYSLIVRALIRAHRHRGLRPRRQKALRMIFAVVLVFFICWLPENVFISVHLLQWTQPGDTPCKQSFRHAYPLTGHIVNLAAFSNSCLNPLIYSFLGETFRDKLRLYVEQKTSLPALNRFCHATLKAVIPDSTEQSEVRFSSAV
Put plainly: cAMP accumulation, radiometric PKA binding assay, mHippoE-18 cells. It counts as cell-based. Particulars: agonist; potentiation of 10 μM forskolin-stimulated cAMP, 100 μM IBMX, 20 min; endogenous receptor, no antagonist.

One may read the EC50 as the midpoint of the concentration-response curve.

As to `C[C@]12CC[C@@H]3c4ccc(O)cc4CC[C@H]3[C@@H]1CC[C@@H]2O` [17β-Estradiol], the EC50 turned out to be 1.1 nM.

Turning to `C[C@]12CC[C@@H]3c4ccc(O)cc4C[C@@H](CCCCCCCCC[S+]([O-])CCCC(F)(F)C(F)(F)F)[C@H]3[C@@H]1CC[C@@H]2O` (stereo partly drawn) [ICI 182,780, 7α, 17β-[9-[(4,4,5,5,5-Pentafluoropentyl)sulfinyl]nonyl]estra-1,3,5(10)-triene-3,17-diol], the EC50 worked out at 3.6 nM. For `CC(=O)c1ccc2c(c1)[C@H]1C=CC[C@H]1[C@@H](c1cc3c(cc1Br)OCO3)N2` (racemic) [G1], the EC50 stood at 0.52 nM.
